Source: patent US7718677B2, “Methods and compositions for reduction of side effects of therapeutic treatments” (priority 2007, dated 2010)
Like-named read-outs stand apart in the source and are kept apart here.

Columns and labels:
[1] = system: 6-hydroxydopamine-lesioned rats; conditions: ROTOMAX, AccuScan System; n=9; saccharin group 8.2+3.7, no difference
Experimental: Behavioral assessment of the lesion. As an index of nigrostriatal damage, the rats were tested for rotational behavior 3 and 4 weeks after lesioning. This was done using an automated behavioral measurement apparatus that has four cylindrical chambers (50 cm height×34 cm diameter) (ROTOMAX, AccuScan Instruments Inc. Columbus, Ohio, USA). A rat was placed in one of the chambers for 30 min for acclimatization, after which time amphetamine (4 mg/kg ip) was administered as previously described (Visanji et al., 2006, Neuropharmacology 51:506-516). […] The rats were tested a second time one week later and the data from the two testing periods pooled.

[2] = system: 6-hydroxydopamine-lesioned rats; conditions: for L-dopa-induced AIMs, time course: L-dopa 8 then 12 mg/kg ip, ANOVA P<0.001; for L-dopa-induced AIMs, crossover to nicotine: rats initially without nicotine then given nicotine
Experimental: Animals. Experiments were performed using male Sprague-Dawley rats (initial weight 250 g) purchased from Charles River Laboratories (Gilroy, Calif.). They were housed 2 per cage under a 12-12 h light-dark cycle in a temperature-controlled room with free access to food and water. Three to four days after arrival, the rats were unilaterally lesioned with 6-hydroxydopamine as previously described (Cenci et al., 1998 Eur J Neurosci 10:2694-2706.; Cenci et al., 2002 Nat Rev Neurosci 3:574-579). During the lesioning procedure the rats were maintained under isofluorane anesthesia (2%). They were placed in a Kopf stereotaxic instrument and burr holes drilled through the skull at the following coordinates relative to the Bregma and dural surface: (1) anteroposterior, −4.4; lateral, 1.2; ventral, 7.8; tooth bar at −2.4; (2) anteroposterior, −4.0; lateral, 0.75; ventral, 8.0; tooth bar at +3.4 (Cenci et al., 1998 Eur J Neurosci 10:2694-2706.; Cenci et al., 2002 Nat Rev Neurosci 3:574-579). 6-Hydroxydopamine was dissolved in 0.02% ascorbic acid/saline at a concentration of 3 ug/ul. Two μl was stereotaxically injected at each of these sites for a total of […] into the right ascending dopamine fiber bundle. Infusion of 6-hydroxydopamine into the target area was over a 2-min period, with the cannula maintained at the site of injection for a further 2 min. All procedures conformed to the NIH Guide for the Care and Use of Laboratory Animals and were approved by the Institutional Animal Care and Use Committee.
Behavioral testing. Two and three weeks after lesioning, rats were tested for rotational behavior in an automated behavioral measurement apparatus (ROTOMAX, AccuScan Instruments Inc. Columbus, Ohio, USA). Each rat was placed in a cylindrical glass chamber for 30 min for acclimatization, after which amphetamine (4.0 mg/kg ip) was administered. The behavior was monitored for an additional 90 min, with rats making at least 100 ipsilateral turns used for further study.
Nicotine treatment. When the behavioral testing was completed, rats were treated with nicotine via the drinking water that yields an intermittent dosing regimen or via minipump that provides a constant level of nicotine. For administration via the drinking water, rats were first provided with a solution containing 1% saccharin (Sigma Chemical Co., St. Louis, Mo.) to mask the bitter taste of nicotine. After 2-3 days of acclimation, nicotine (free base, Sigma Chemical Co., St. Louis, Mo.) was added to the saccharin-containing drinking solution of the treated group (pH 7.0). Nicotine was initially given at a concentration of 25 μg/ml nicotine for 2 days.
In a separate series of experiments, rats were given nicotine continuously via Alzet minipumps (model 2004-200 μl), which secrete nicotine for 28 days. These were subcutaneously implanted according to the manufacturer's instruction. Pumps were filled with either sterilized water or nicotine base in water to deliver 2 mg/kg/d.
L-dopa treatment. Three weeks after initiation of the 50 ug/ml nicotine dose, the rats received single daily intraperitoneal injections of 8 mg/kg L-dopa methyl ester plus 15 mg/kg benserazide (both from Sigma Chemical Co., St. Louis, Mo.) (Cenci et al., 1998 Eur J Neurosci 10:2694-2706.; Cenci et al., 2002 Nat Rev Neurosci 3:574-579). After 3 weeks of daily L-dopa dosing, abnormal involuntary movements (AIMs) were quantified. These included (1) axial dystonia, contralateral twisted posturing of the neck and upper body; (2) orolingual dyskinesia, stereotyped jaw movements and contralateral tongue protrusion; and (3) forelimb dyskinesia, repetitive rhythmic jerks or dystonic posturing of the contralateral forelimb and/or grabbing movements of the contralateral paw (Cenci et al., 1998 Eur J Neurosci 10:2694-2706.; Cenci et al., 2002 Nat Rev Neurosci 3:574-579; Carta et al., 2006 Neurochem 96:1718-1727).

CN1CCCC1c1cccnc1 (stereo not drawn) [Nicotine, S-3-(1-methyl-2-pyrrolidinyl)pyridine]
extent of turning [1]: 8.4+6.7
individual AIM components (total, axial, oral, forelimb) ([2]; constant nicotine 2 mg/kg/d via minipump vs no nicotine, FIG. 15): reduced
L-dopa-induced AIMs, time course ([2]; continuous nicotine 2 mg/kg/d via minipump, FIG. 14): significant effect
AIMs development after removal of nicotine ([2]; drinking water, rats initially on nicotine then given saccharin, FIG. 13): increase
L-dopa-induced AIMs, crossover to nicotine ([2]; drinking water, FIG. 13): reduced
L-dopa-induced AIMs, time course ([2]; intermittent nicotine 50 μg/ml in drinking water, FIG. 11): significant effect
individual AIM components (total, axial, oral, forelimb) ([2]; intermittent nicotine in drinking solution vs saccharin only, FIG. 12): reduced
AIMs development after removal of nicotine ([2]; minipump, rats initially on nicotine then given minipumps containing no nicotine, FIG. 16): increase
L-dopa-induced AIMs, crossover to nicotine ([2]; minipump, FIG. 16): reduced
